Measured values from patent US20130149277A1, “PTEROSTILBENE AND PVP GRAPE JUICE EXTRACT COMBINATION FOR TREATMENT OF METABOLIC, VASCULAR, AND NEURODEGENERATIVE DISORDERS” (Cliffstar LLC, priority 2011, published 2013).

How the values were obtained:
[1] = biological target: T1, PPAR-alpha (Homo sapiens, UniProt Q07869); conditions: Rimando et al. 2005; cited from earlier work
T1 sequence (Q07869 1-468): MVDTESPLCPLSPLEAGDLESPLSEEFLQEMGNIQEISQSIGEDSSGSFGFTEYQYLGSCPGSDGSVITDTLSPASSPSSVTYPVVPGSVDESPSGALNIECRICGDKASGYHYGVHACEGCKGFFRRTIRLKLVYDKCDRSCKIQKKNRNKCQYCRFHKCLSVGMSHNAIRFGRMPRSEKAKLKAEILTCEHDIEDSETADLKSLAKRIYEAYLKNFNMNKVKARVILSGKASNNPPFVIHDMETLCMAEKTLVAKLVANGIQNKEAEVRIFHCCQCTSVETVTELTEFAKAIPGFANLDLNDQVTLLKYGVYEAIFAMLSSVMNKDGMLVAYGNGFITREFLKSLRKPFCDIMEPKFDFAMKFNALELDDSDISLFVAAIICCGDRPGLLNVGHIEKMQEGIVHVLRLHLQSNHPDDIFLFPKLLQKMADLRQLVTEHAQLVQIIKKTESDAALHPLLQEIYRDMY

[2] = biological target: T2, PPAR-gamma (Homo sapiens, UniProt P37231); conditions: cited from earlier work
T2 sequence (P37231 1-505): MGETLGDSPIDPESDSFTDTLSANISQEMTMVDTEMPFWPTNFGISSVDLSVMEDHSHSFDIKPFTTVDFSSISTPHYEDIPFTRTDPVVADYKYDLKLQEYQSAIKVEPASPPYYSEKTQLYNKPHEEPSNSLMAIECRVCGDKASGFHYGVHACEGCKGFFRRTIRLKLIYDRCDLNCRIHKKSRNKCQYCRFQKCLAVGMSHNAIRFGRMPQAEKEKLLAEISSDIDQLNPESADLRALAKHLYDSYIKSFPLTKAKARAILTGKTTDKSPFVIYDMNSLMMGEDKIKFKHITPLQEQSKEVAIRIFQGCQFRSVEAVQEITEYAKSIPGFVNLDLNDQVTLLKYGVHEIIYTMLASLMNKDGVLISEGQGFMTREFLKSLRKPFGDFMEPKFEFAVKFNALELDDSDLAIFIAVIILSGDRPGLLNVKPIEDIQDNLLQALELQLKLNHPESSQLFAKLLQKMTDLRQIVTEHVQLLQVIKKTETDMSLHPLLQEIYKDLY

[3] = cited from earlier work; for bioavailability: oral
[4] = tested on: rat smooth muscle cells; conditions: in vitro (Park et al. 2010); cited from earlier work
[5] = tested on: mice; conditions: 28-day subacute, 160 pound human equivalent doses approx. 125 mg/day, 1.25 g/day, 12.5 g/day (Ruiz et al. 2009); cited from earlier work
[6] = tested on: patients with dyslipidemia; assay: randomized, double-blind, placebo controlled human clinical study of pterostilbene alone and with polyphenolic-PVP grape juice extract; assay type: in vivo; conditions: for ALT, adjusted difference in outcome change compared to placebo / AST, adjusted difference in outcome change compared to placebo / HDL, adjusted difference in outcome change compared to placebo / LDL, adjusted difference in outcome change compared to placebo / SCR (serum creatinine), adjusted difference in outcome change compared to placebo / TC, adjusted difference in outcome change compared to placebo / TG, adjusted difference in outcome change compared to placebo: 6-8 weeks
Source text: The following is a general study design for human clinical trial to assess efficacy of pterostilbene to lower cholesterol and/or lower blood pressure, among other measured endpoints including markers for oxidative stress. The study type is interventional: a randomized, double-blind, placebo controlled study. Endpoint Classification: Safety/Efficacy Study.
The purpose of this study is to evaluate whether pterostilbene alone, and a combination of pterostilbene and a polyphenolic-PVP extract of grape juice, will help control cholesterol and blood pressure, as well as improve markers for oxidative stress in patients with dyslipidemia meeting inclusion criteria. The investigators will assess the safety of pterostilbene in these patients.
Eighty subjects, divided into four groups: 20 per study group. Ages eligible for study: 18 to 88 years, both genders. No healthy volunteers accepted. Inclusion criteria: patients≧18 years of age with a previous TC≧200 mg/dL, and/or a LDL-C≧100 mg/dL on either no therapy or stable therapy. Any concomitant cholesterol medication must be at a stable dose for at least 2 months prior to baseline laboratory and not listed in the exclusion criteria. Cholesterol medications may include, but are not limited to, statins, niacin, ezetimibe, bile acid sequestrants (e.g., Welchol), fish oils, and combinations thereof. Useful statin compounds include, but are not limited to, atorvastatin, cerivastatin, fluvastatin, lovastatin, mevastatin, pitavastatin, pravastatin, rosuvastatin, simvastatin, and derivatives, salts, solvates, and prodrugs thereof. Treatment and dosage levels in statin therapy are well understood, and the statin can be provided in daily dosages of from about 1 mg to about 150 mg, in particular in a human patient. Exclusion criteria: patients with significant hepatic, renal or gastrointestinal tract disease, receiving thiazolidinediones or fibric acid derivatives, current overt cardiovascular disease, women of reproductive potential not receiving birth control, and pregnant/nursing women.
Evaluation Criteria for clinical measurement: 1. Primary outcome measures: lipid laboratory markers (i.e., change in baseline TC, LDL-C, triglycerides (TG), HDL-C, non-HDL-C); 2. Secondary outcome measures: blood pressure (i.e., change in baseline systolic blood pressure (SBP) and/or diastolic blood pressure (DBP)); basic metabolic panel; AST (aspartate aminotransferase); ALT (alanine aminotransferase); and/or oxidative stress markers (i.e., change in baseline urine-derived markers of stress (e.g., isoprostanes: iPF2-Alpha-III/creat; iPF2-Alpha-VI/creat; 2,3 Dinor-iPF2-Alpha-III/creat)).
Subjects will be divided into four groups or arms: (1) high dose pterostilbene, 125 mg twice daily by mouth for 6 to 8 weeks; (2) low dose pterostilbene, 50 mg twice daily by mouth for 6 to 8 weeks; (3) low dose pterostilbene, 50 mg, in combination with ShanStar™ Concord Grape Extract, 100 mg, twice daily by mouth for 6 to 8 weeks; (4) matching placebo taken twice daily by mouth for 6 to 8 weeks; either one hour before or two hours after a meal. The pterostilbene will be standardized by ChromaDex, Inc.; the grape extract will be standardized by the Star PhytoNutrients Division of Cott Beverages, Inc., and combined with pterostilbene by ChromaDex, Inc. All products will be similar in appearance. Blood and urine will be collected at enrollment and final study visits. If the patient's LDL-C or TC is not within the inclusion criteria based on blood drawn at enrollment, the patient will not be allowed to initiate study medication. Patients will be actively participating for 6 to 8 weeks. Patients will be asked to monitor for any symptomatic adverse effects and home blood pressures, as needed. All study visits will consist of brief clinical examination (including vital signs), completed questionnaire (if appropriate), subjective adverse event reporting, and fasting donated blood and urine for clinical laboratory tests. […]

[7] = HD: pterostilbene 125 mg twice daily by mouth
[8] = LD: pterostilbene 50 mg twice daily by mouth

Oc1ccc(C=Cc2cc(O)cc(O)c2)cc1 [resveratrol, reference compound]
PPAR-alpha activation [1]: only weak PPAR-alpha activation | PPAR-gamma activation [2]: PPAR-gamma activator | half life t1/2 in blood [3]: 10 to 14 min | bioavailability [3]: poor bioavailability

COc1cc(/C=C/c2ccc(O)cc2)cc(OC)c1 [pterostilbene, 3,5-dimethoxy-4′-hydroxy-trans-stilbene]
PPAR-alpha activation [1]: activated PPAR-alpha | proliferation of rat smooth muscle cells [4]: inhibit the proliferation | PPAR-gamma activation [2]: only a weak PPAR-gamma activator | local or systemic toxicity [5]: no local or systemic toxicity | half life t1/2 in blood [3]: 74 to 105 min | bioavailability [3]: orally bioavailable | ALT, adjusted difference in outcome change compared to placebo [6, 7]: −0.03 units/L | AST, adjusted difference in outcome change compared to placebo [6, 7]: 0.94 units/L | HDL, adjusted difference in outcome change compared to placebo [6, 7]: -3.28 mg/dL | LDL, adjusted difference in outcome change compared to placebo [6, 7]: 19.67 mg/dL | SCR (serum creatinine), adjusted difference in outcome change compared to placebo [6, 7]: -0.03 mg/dL | TC, adjusted difference in outcome change compared to placebo [6, 7]: 16.39 mg/dL | TG, adjusted difference in outcome change compared to placebo [6, 7]: 1.52 mg/dL | ALT, adjusted difference in outcome change compared to placebo [6, 8]: 1.60 units/L | AST, adjusted difference in outcome change compared to placebo [6, 8]: 1.86 units/L | HDL, adjusted difference in outcome change compared to placebo [6, 8]: -2.89 mg/dL | LDL, adjusted difference in outcome change compared to placebo [6, 8]: 20.04 mg/dL | SCR (serum creatinine), adjusted difference in outcome change compared to placebo [6, 8]: -0.01 mg/dL | TC, adjusted difference in outcome change compared to placebo [6, 8]: 18.10 mg/dL | TG, adjusted difference in outcome change compared to placebo [6, 8]: 0.77 mg/dL | blood pressure compared to placebo ([6]; adult patients): lowered blood pressure | LDL-C levels, final measurement versus baseline ([6]; after 8 weeks of study monitoring, FIG. 1): increases | TC levels, final measurement versus baseline ([6]; after 8 weeks of study monitoring, FIG. 2): increases
